Values of other authors, collected in patent US20030004141A1, “Medical devices, compositions and methods for treating vulnerable plaque” (priority 2001, published 2003).

Details: general statement from cited pre-clinical and clinical studies

CNC(=O)[C@@H](NC(=O)[C@H](CC(C)C)[C@H](O)C(=O)NO)C(C)(C)C [marimastat]
in vivo toxicity: minimal in vivo toxicity
